Key:
h-EP2 = h-EP2 (Homo sapiens, UniProt P43116); assay: Prostaglandin EP2 receptor binding assay (3H-PGE2 SPA); details: EP2 receptor membranes, 20 nM 3H-PGE2, pH 6.0
Experimental: Compounds of the invention were tested in an EP2 receptor binding assay of the following protocol. As referred to herein, the term an “EP2 receptor binding assay” designates the following protocol.

h-EP4 = h-EP4 (Homo sapiens, UniProt P35408); assay: EP4 receptor binding assay (3H-PGE2 SPA); details: EP4 receptor membranes, 20 nM 3H-PGE2, pH 6.0
h-EP4, sequence (P35408 whole entry): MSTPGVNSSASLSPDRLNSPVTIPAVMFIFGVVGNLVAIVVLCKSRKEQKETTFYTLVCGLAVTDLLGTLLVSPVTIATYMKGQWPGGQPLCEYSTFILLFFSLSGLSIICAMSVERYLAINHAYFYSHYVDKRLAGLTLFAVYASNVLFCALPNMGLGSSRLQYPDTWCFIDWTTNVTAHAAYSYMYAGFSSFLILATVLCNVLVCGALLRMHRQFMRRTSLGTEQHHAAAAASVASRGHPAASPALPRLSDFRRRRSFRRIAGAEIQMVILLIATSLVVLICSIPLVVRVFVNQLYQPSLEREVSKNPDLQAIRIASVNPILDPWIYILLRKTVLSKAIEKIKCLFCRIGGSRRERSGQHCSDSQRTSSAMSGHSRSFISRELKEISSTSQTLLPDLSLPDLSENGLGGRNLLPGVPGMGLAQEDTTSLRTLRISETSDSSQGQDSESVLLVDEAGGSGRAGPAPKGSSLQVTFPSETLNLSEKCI
Experimental: Compounds of the invention were tested in an EP4 receptor binding assay of the following protocol.

hEP2 receptors = target: T1, hEP2 receptors (Homo sapiens, UniProt P43116); assay: EP2 cAMP assay, HEK293-EBNA cells transfected with pCEP4-hEP2 receptors; format: cell-based; details: total cAMP, 1 hour
T1 construct: expressed in transfected cells; host or cells: HEK293-EBNA
T1 sequence (P43116 whole entry): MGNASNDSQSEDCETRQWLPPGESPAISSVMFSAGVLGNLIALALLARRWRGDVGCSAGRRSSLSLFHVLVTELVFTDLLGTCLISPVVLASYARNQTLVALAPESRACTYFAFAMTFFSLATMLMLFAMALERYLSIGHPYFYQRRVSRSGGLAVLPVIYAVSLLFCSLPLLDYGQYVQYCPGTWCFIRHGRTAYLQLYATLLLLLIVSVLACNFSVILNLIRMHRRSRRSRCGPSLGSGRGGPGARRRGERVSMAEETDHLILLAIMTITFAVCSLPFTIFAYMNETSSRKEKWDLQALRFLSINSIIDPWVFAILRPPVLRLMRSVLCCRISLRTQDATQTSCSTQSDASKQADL
Experimental: Compounds of the invention were tested in a total cAMP assay as follows. […] After overnight incubation, the medium was removed from each well and replaced with 45 μl of assay medium consisted of phenol red free D-MEM/F-12, 0.1% BSA (GibcoBRL) and 0.1 mM 3-isobutyl-1-methyl-xanthine (Sigma). […] Total cAMP (intra- and extra-cellular) was measured by using a cAMP-screen ELISA System (Tropix, #CS1000).

hEP4 receptors = target: T2, hEP4 receptors (Homo sapiens, UniProt P35408); assay: EP4 cAMP assay, HEK293-EBNA cells transfected with pCEP4-hEP4 receptors; format: cell-based; details: total cAMP, 1 hour
T2 construct: expressed in transfected cells; host or cells: HEK293-EBNA
T2 sequence (P35408 whole entry): as the sequence (P35408 whole entry) above
Experimental: Compounds of the invention were tested in a total cAMP assay as follows. HEK293-EBNA cells transfected with pCEP4-hEP4 receptors were seeded in 96 well opaque plate (Costar #3917) at 4×10^4 cells per well in 100 μl of culture medium (D-MEM/F12 supplemented with 10% FBS, […] L-glutamine, and 250 μg/ml of hygromycin; all from GibcoBRL) and incubated at 37° C. After overnight incubation, the medium was removed from each well and replaced with 45 μl of assay medium consisted of phenol red free D-MEM/F-12, 0.1% BSA (GibcoBRL) and 0.1 mM 3-isobutyl-1-methyl-xanthine (Sigma). After 15 minutes of incubation at 37° C., 16-16-dimethyl PGE-2 or compounds at desired concentrations in 20 μl of assay medium were added to cells and further incubated at 37° C. for 1 hour. Total cAMP (intra- and extra-cellular) was measured by using a cAMP-screen ELISA System (Tropix, #CS1000).

[1] = system: methacholine-induced bronchoconstriction; assay: In vivo inhibition of guinea pig broncho-constriction (methacholine-induced); details: Cavia porcellus, IT (intra-tracheal) route, read-out: calculated effective dose (ED50), bronchoconstriction
Description: The activity of compounds of the invention in dilation of bronchiolar muscles, may be tested in different models. Guinea pig pulmonary-cholinergic in vivo model is generally used to test the materials for the treatments of asthma in human (Fleisch et al., 1985) Compounds of the invention can be tested in this methacholine-induced bronchomuscle constriction model as described below.
Groups of 3 Duncan Hartley derived male or female guinea pigs weighing 250±50 g are anesthetized with pentobarbital sodium (50 mg/kg i.p., plus an additional 15 mg/kg i.p. if required) and succinylcholine chloride (2 mg/animal i.p.) is subsequently administered to prevent spontaneous respiration. Body temperature is maintained at 37° to 38° C.
The trachea is cannulated and the guinea pig is ventilated with a Harvard rodent respirator in a closed system. Tracheal pressure is recorded through a side-arm of the cannula connected to a P23ID Statham transducer. […] Mean arterial pressure (BP) is monitored from a cannulated carotid artery, and heart rate (HR) is obtained from chest electrodes arranged for lead II. […]
Compounds of the invention are also tested via intra-tracheal (IT) route of administration. […] Tracheal pressure (ITP), blood pressure and heart rate are measured immediately as indicated in the material and methods sections. […]

LPS-induced TNFα release = assay: In vivo inhibition of LPS-induced TNFα release in mice; details: LPS 0.3 mg/kg i.p.
Experimental: The anti-inflammatory activity of compounds of the invention may be assessed after a LPS challenge using the following protocol:
Eight weeks old C3H/H mice (IFFA-CREDO, L'arbresle, France) receive an oral treatment with compounds of the invention 6 different doses (0.001, 0.01, 0.1, 1 or 3 and 10 mg/kg in 0.5% CMC/0.25% tween-20). Six mice are used by group. Fifteen minutes later, endotoxins (O111:B4 Sigma, 0.3 mg/kg) are intraperitoneally injected. Heparinized whole blood is collected by decapitation. TNFα level is determined in plasma by ELISA (R & D Systems, Abdingdon, UK). Control animals receive 0.5% CMC/0.25% tween-20 (10 ml/kg) as vehicle. Data obtained from experiments are expressed as the mean±SEM and analysed using one-way analysis of variance (ANOVA) followed by Dunnett's t-test.

[2] = system: mature mouse ovulation induction model; assay: In vivo ovulation assay (mature mouse ovulation induction model); details: Mus musculus, po, read-out: calculated ED50 (dose of drug which produces 50% of its effect), ovulation; p.o. administration route, mice
Experimental: Ovulation induction activity of compounds of the invention was tested in a mature mouse ovulation induction model.
Mature 10-week-old CD-mice were used. Reagents were prepared as follows: PMSG (pregnant mare serum gonadotropin) (Calbiochem, cat #367222) and hCG (Serono) are diluted in PBS. PGE2 (Cayman, Ann Arbor Mich.) was dissolved in ethanol and diluted with 0.154 M […] Buffer (pH 8.0) to final concentration of ethanol of less than 3 percent. A compound of the invention (based on solubility) was pre-dissolved in ethanol, DMSO or other reagents. The compound of the invention was then diluted with saline or other diluents such as PBS or NP3S (5% N-methyl-pyrrolidinone/30% PEG400/25% PEG200/20% Propylene Glycol in saline). PMSG stimulates ovarian follicular development. After PMSG stimulation, the mature follicules can be stimulated to rupture and release oocytes by an ovulation trigger, such as hCG or a compound of the invention.
The following test protocol is employed for the test animals (typically 5 animals per test group). • Day 1: Inject 5 IU PMSG in 200 μl PBS (i.p. 15:00 PM) • Day 2: No administration • Day 3: Injection of ovulation trigger hCG (i.p.) or hCG replacement (PGE2 or compound of the invention, s.c., i.v. or oral route), 15:00 PM • Day 4: Eighteen hours after injections of the ovulation triggers, animals were sacrificed by CO2 asphyxiation and abdominal cavities were opened using fine scissors and forceps. Uterus, oviducts and ovaries were collected and placed in pre-labeled dishes containing phosphate buffered saline (PBS). The collected tissues were transferred to the laboratory and intact oviduct carefully dissected out from uterus and ovary under the dissection microscope. The dissected oviducts were placed on the glass microscopic slide and covered with another slide. Two slides were taped on two edges. The numbers of ovulated ova in the oviducts were counted using upright microscope with 4× objective and recorded. […]

h-EP2, sequence (P43116 whole entry): as the sequence (P43116 whole entry) above

Row | Ki (h-EP2) | Ki (h-EP4) | EC50 (hEP2 receptors) | EC50 (hEP4 receptors) | Structure (SMILES) | also measured
1 | 60 nM | 6 nM |  |  | CCCC/C(C)=C/C=C\[C@H]1CCC(=O)N1CCCc1ccc(C(=O)O)s1 (single isomer, unassigned) [Example 13] | 
2 | 60 nM | 6 nM | 49 nM | 2 nM | CCCC/C(C)=C/C=C\[C@H]1CCC(=O)N1CCCc1ccc(C(=O)O)s1 (single isomer, unassigned) [Example 19] | 
3 | 1530 nM | 71 nM | 2600 nM | 2 nM | CC/C=C/C=C\[C@H]1CCC(=O)N1CCc1ccc(C(=O)O)cc1 [Example 7, 4-(2-{(2R)-2-[(1Z,3E)-hexa-1,3-dienyl]-5-oxopyrrolidin-1-yl}ethyl)benzoic acid] | 
4 | 410 nM | 45 nM | 1050 nM | 2 nM | CC(C)=CCC/C(C)=C/C=C\[C@H]1CCC(=O)N1CCc1ccc(C(=O)O)cc1 [Example 11, 4-(2-{(2R)-2-[(1Z,3E)-4,8-dimethylnona-1,3,7-trienyl]-5-oxopyrrolidin-1-yl}ethyl)benzoic acid] | 
5 | 750 nM | 470 nM |  |  | CC(C)=CCC/C(C)=C/C=C/[C@H]1CCC(=O)N1CCc1ccc(C(=O)O)cc1 [Example 12, 4-(2-{(2R)-2-[(1E,3E)-4,8-dimethylnona-1,3,7-trienyl]-5-oxopyrrolidin-1-yl}ethyl)benzoic acid] | 
6 | 44 nM | 51 nM |  |  | CCCC/C=C/C=C\[C@H]1CCC(=O)N1CCCc1ccc(C(=O)O)s1 [Example 17, 5-(3-{(2R)-2-[(1Z,3E)-octa-1,3-dienyl]-5-oxopyrrolidin-1-yl}propyl)thiophene-2-carboxylic acid] | 
7 | 79 nM | 6 nM |  |  | CCC/C(C)=C/C=C\[C@H]1CCC(=O)N1CCc1ccc(C(=O)O)cc1 [Example 44, 4-(2-{(2R)-2-[(1Z,3E)-4-methylhepta-1,3-dienyl]-5-oxopyrrolidin-1-yl}ethyl)benzoic acid] | ED50 [2]: 1 mg/kg
8 | 36 nM | 164 nM |  |  | C/C(=C\C=C\[C@H]1CCC(=O)N1CCc1ccc(C(=O)O)cc1)C(C)C [Example 55, 4-(2-{(2R)-2-[(1E,3E)-4,5-dimethylhexa-1,3-dienyl]-5-oxopyrrolidin-1-yl}ethyl)benzoic acid] | 
9 | 27 nM | 307 nM |  |  | O=C(O)c1ccc(CCN2C(=O)CC[C@@H]2/C=C\C=C2CCCCC2)cc1 [Example 56] | 
10 | 100 nM | 69 nM |  |  | O=C(O)c1ccc(CCN2C(=O)CC[C@@H]2/C=C\C=C(/c2ccccc2)C(F)(F)F)cc1 [Example 58] | 
11 | 277 nM | 165 nM |  |  | C/C(=C\C=C\[C@H]1CCC(=O)N1CCc1ccc(C(=O)O)cc1)C1CC1 [Example 63, 4-(2-{(2R)-2-[(1E,3E)-4-cyclopropylpenta-1,3-dienyl]-5-oxopyrrolidin-1-yl}ethyl)benzoic acid] | 

Row | Structure (SMILES) | Ki (h-EP2) | Ki (h-EP4) | EC50 (hEP2 receptors) | EC50 (hEP4 receptors) | also measured
12 | CCCC/C=C/C=C\[C@H]1CCC(=O)N1CCc1ccc(C(=O)O)cc1 [Example 1, 4-(2-{(2R)-2-[(1Z,3E)-octa-1,3-dienyl]-5-oxopyrrolidin-1-yl}ethyl)benzoic acid] | 88 nM | 25 nM | 197 nM | 20 nM | 
13 | CCCC/C=C(C)/C=C/[C@H]1CCC(=O)N1CCc1ccc(C(=O)O)cc1 [Example 22, 4-(2-{(2R)-2-[(1E,3E)-3-methylocta-1,3-dienyl]-5-oxopyrrolidin-1-yl}ethyl)benzoic acid] | 34 nM | 145 nM | 23 nM | 21 nM | ED50 [1]: 0.4 mg/kg; % of Inhibition of TNF Release Mean ± SEM (LPS-induced TNFα release; oral dose 0.001 mg/kg): 46 ± 2%; % of Inhibition of TNF Release Mean ± SEM (LPS-induced TNFα release; oral dose 0.01 mg/kg): 49 ± 4%; % of Inhibition of TNF Release Mean ± SEM (LPS-induced TNFα release; oral dose 0.1 mg/kg): 59 ± 2%; % of Inhibition of TNF Release Mean ± SEM (LPS-induced TNFα release; oral dose 1 mg/kg): 70 ± 4%; % of Inhibition of TNF Release Mean ± SEM (LPS-induced TNFα release; oral dose 10 mg/kg): 87 ± 2%
14 | C/C(=C\C=C/[C@H]1CCC(=O)N1CCc1ccc(C(=O)O)cc1)CC1CCCC1 [Example 30, 4-(2-{(2)-2-[(1Z,3E)-5-cyclopentyl-4-methylpenta-1,3-dienyl]-5-oxopyrrolidin-1-yl}ethyl)benzoic acid] | 60 nM | 117 nM |  |  | 
15 | C/C(=C\C=C/[C@H]1CCC(=O)N1CCc1ccc(C(=O)O)cc1)c1ccccc1 [Example 32, 4-(2-{(2R)-2-[(1Z,3E)-4-phenylpenta-1,3-dienyl]-5-oxopyrrolidin-1-yl}ethyl)benzoic acid] | 749 nM | 29 nM |  |  | 

From patent US7276531B2, “G-lactam derivatives as prostaglandin agonists” (Applied Research Systems ARS Holding N.V., priority 2003, dated 2007)
